Consider two compounds from publication PMC7601446, “Significant Decreased Expressions of CaN, VEGF, SLC39A6 and SFRP1 in MDA-MB-231 Xenograft Breast Tumor Mice Treated with Moringa oleifera Leaves and Seed Residue (MOLSr) Extracts” (Nutrients, 2020).

The subject of data set [1] is MDA-MB-231 xenograft tumor. Nature of the data set: In vivo tumorigenicity study, MDA-MB-231 xenograft mice. Also on record: species or system NOD/ShiJic-SCID mice. The method, then:
(§1) Animal study was approved by the UiTM Committee on Animal Research and Ethics (Ethic approval number: UiTM CARE 278/2019 (05/04/2019)). All animal experiments were conducted in accordance with standard ethical guidelines. Six- to eight-week-old female SPF NOD/ShiJic-SCID mice were obtained from Nomura Siam International (Bangkok, Thailand). All mice were housed in the pathogen-free environment under controlled conditions (temperature 20–26 °C, humidity 40–70%, light/dark cycle 12 h/12 h) and received water and food ad libitium. To evaluate the tumorigenesis in the animal model, the highly aggressive MDA-MB-231 cell lines were injected into SCID mice to induce the breast cancer model. MDA-MB-231 cell lines (ATCC® HTB-26™) were grown in Leibovitz’s medium (L15) (HyClone, Rd. Logan, UT, USA) with 10% fetal bovine serum (FBS) (Gibco, Gaithersburg, MD, USA) and 1% penicillin-streptomycin (Beyotime Biotechnology, Haimen, Jiangsu, China) in a humidified incubator at 37 °C without CO2. Mice were subcutaneously injected with 3 × 10^6/100 μL MDA-MB-231 cells into the right flank region in the SCID mice.
(§2) Body weight and tumor volume were measured weekly up to two months. The tumor-growth-inhibition rate (I.R.) was calculated using the following formula: I.R. (%) = {[(Average tumor volume of the control − average tumor volume of the treated group)/Average tumor volume of the control] * 100%}. After two months, serum blood was collected for biochemical analysis. Subsequently, all organs (liver, kidney, spleen, heart and lung) and tumors were excised, weighted and calculated as relative organ weight (expressed as the percentage of organ weight to body weight). The tumors were snap-frozen in liquid nitrogen for gene expression analysis later.

Data set [2] has as its system 84 key human breast cancer genes in MDA-MB-231 xenograft tumor. Description: Human Breast Cancer RT2 Profiler PCR array on excised tumor. The format is in vivo, mice. To be noted: TAM-treated vs non-treated, p < 0.05. The method, then: as §2
Serum blood was subjected to biochemical analysis on calcineurin (CaN), estrogen (ES) and vascular endothelial cell growth factor (VEGF) proteins using ELISA kits (FineTest, Wuhan, China), following the manufacturer’s instructions. The Human Breast Cancer RT^2 Profiler PCR array (Rotor-Gene® Format) (PAHS-131ZR, Qiagen® GmbH, Hilden, Germany) was used to profile the expression of 84 genes associated with key human breast cancer pathways. Briefly, total RNA was isolated from pulverized tumor tissues of non-treated (negative control), high-dose M1S9-treated mice and TAM-treated (positive control) using RNeasy® Lipid Tissue Mini kit (Qiagen® GmbH, Hilden, Germany). Three biological replicates were prepared from each group. Eluted RNA was quantitated and purity-checked using UV-absorbance-based NanoDrop® (Thermo Scientific, Wilmington, NC, USA) and Agilent 2100 Bioanalyzer RNA 6000 Nano Chip (Agilent, Palo Alto, CA, USA), respectively. A total of 1000 ng of RNA sample was converted to cDNA using RT^2 First Strand Kit (Qiagen® GmbH, Hilden, Germany) according to the manufacturer’s protocol. The cDNA was then mixed with RT^2 SYBR Green ROX FAST Mastermix and RNase-free water before dispensing into the array and then subjected to Rotor-Gene® Q real time PCR cycler (Qiagen® GmbH, Hilden, Germany) for analysis. Threshold cycle (CT) of each gene was analyzed for ΔΔCT after normalization using housekeeping genes in the web-based RT^2 Profiler Data Analysis Software (https://www.qiagen.com/my/shop/genes-and-pathways/data-analysis-center-overview-page/).

Data set [3] deals with vascular endothelial cell growth factor (VEGF). Description: Serum ELISA of VEGF in xenograft mice. To be noted: high-dose M1S9 or TAM 30 mg/kg vs non-treated xenograft mice. The format is in vivo. On the procedure: as §2
(§3) Serum blood was subjected to biochemical analysis on calcineurin (CaN), estrogen (ES) and vascular endothelial cell growth factor (VEGF) proteins using ELISA kits (FineTest, Wuhan, China), following the manufacturer’s instructions. […] Eluted RNA was quantitated and purity-checked using UV-absorbance-based NanoDrop® (Thermo Scientific, Wilmington, NC, USA) and Agilent 2100 Bioanalyzer RNA 6000 Nano Chip (Agilent, Palo Alto, CA, USA), respectively. […] Threshold cycle (CT) of each gene was analyzed for ΔΔCT after normalization using housekeeping genes in the web-based RT^2 Profiler Data Analysis Software (https://www.qiagen.com/my/shop/genes-and-pathways/data-analysis-center-overview-page/).

The nature of data set [4]: Body weight and relative organ weight in MDA-MB-231 xenograft mice. The format is in vivo, NOD/ShiJic-SCID mice. To be noted: up to eight weeks. The method, then: as §1, with “All mice were housed in the pathogen-free environment under controlled conditions (temperature 20–26 °C, humidity 40–70%, light/dark cycle 12 h/12 h) and received water and food ad libitium.” left out, “HTB-26TM)” for “HTB-26™)”, “Leibovitz's” for “Leibovitz’s”, “mice. […] Body weight and tumor volume were measured weekly up to two months. […] Subsequently, all organs (liver, kidney, spleen, heart and lung) and tumors were excised, weighted and calculated as relative organ weight (expressed as the percentage of organ weight to body weight). […]” for “mice.”

The subject of a further data set is estrogen (ES). Nature of the data set: Serum ELISA of estrogen in xenograft mice. The format is in vivo. To be noted: TAM 30 mg/kg vs non-treated xenograft mice. For orientation: ELISA stands for enzyme-linked immunosorbent assay.
The next data set deals with calcineurin (CaN). Nature of the data set: Serum ELISA of calcineurin in xenograft mice. The format is in vivo. To be noted: high-dose M1S9 or TAM 30 mg/kg vs non-treated xenograft mice. On the procedure:
as §2, §3

A short description of data set [5]: Ferric reducing antioxidant power (FRAP) assay. To be noted: mean ±2 standard deviation (n = 3). On the procedure: Moringa mixtures were subjected to phytochemical analysis following methods described by Harborne (1998) and Kokate (2005), which are based on visual observation of color changes or the formation of precipitates. Quantitative analysis of total flavonoid content (TFC) and total phenolic content (TPC) of moringa mixtures were determined spectrophotometrically by the aluminum calorimetric method (quercetin as the reference standard) and Folin–Ciocalteu method (gallic acid as the reference standard) with minor modifications, respectively. […] These antioxidant assays were carried out according to Yang et al. (2011) with slight modifications. Detailed steps were described previously by Abdul Hisam et al. (2018). All the experiments were conducted in triplicate.

On to `CC/C(=C(\c1ccccc1)c1ccc(OCCN(C)C)cc1)c1ccccc1` [TAM, tamoxifen], for which, in data set [1] (M1S9 all three doses, TAM 30 mg/kg, up to six weeks, p < 0.05), the “tumor volume compared to the control mice” value is recorded as “significant reduction”. Further, in data set [1] (TAM 30 mg/kg subcutaneously, sixth week), the “tumor growth inhibition (highest inhibition rate)” value is “up to 80.5%”. The tumor growth inhibition in data set [1] (TAM 30 mg/kg subcutaneously, third week) was 69.1%. Further, in data set [2], the AR gene expression entry is recorded as “induced significantly”, the CTNNB1 gene expression result is recorded as “suppressed significantly”, the ESR1 gene expression result was “induced significantly” and the IL6 gene expression entry is “induced significantly”. Further, in data set [2], the MYC gene expression entry is given as “induced significantly”, the NR3C1 gene expression entry is “induced significantly” and the THBS1 gene expression result is given as “induced significantly”. Besides, the VEGF protein level entry in data set [3] is listed as “decreased significantly”. Besides, the body weight changes result in data set [4] was “no significant difference”. Further, the ES protein level result with estrogen (ES) was “decreased significantly”. Moreover, in the data set with calcineurin (CaN), the CaN protein level result is on record as “decreased significantly”.

Turning to `O=C1O[C@H]([C@@H](O)CO)C(O)=C1O` [ascorbic acid], the FRAP in data set [5] is listed as 172.41 ± 12.6 ^$ µg Trolox/mg.
